Some test systems named below: SF-295 CNS; NCI-H226 lung; NCI/ADR-RES ovarian; CAKI-1 renal; SNB-75 CNS; PC-3 prostate; MOLT-4 leukemia; KM12 colon; UACC-257 melanoma; HCT-116 colon.
Holding throughout (assay): NCI tumour cell line growth inhibition, 48 h

Several values for one entry are separate records, joined by “and”; a condition that tells them apart may be missing. Identical values can stand only once.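 Step 1: Grow cells in 96-well plates. Step 2: Expose to compound for 48 hours at 5 concentrations. Step 3: Interpolate endpoints linearly; if unreached, use highest concentration. The concentration for 50% growth inhibition is given as GI50. Definition used: TGI = concentration required for complete inhibition of growth.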

`Cn1c2ccccc2c(=S)c2cc(NC(=O)CCCCC(=O)Nc3ccc4c(c3)c(=S)c3ccccc3n4C)ccc21`: the TGI in the test on SF-295 CNS, in the test on NCI-H226 lung, with NCI/ADR-RES ovarian, in the test on CAKI-1 renal, in the test with SNB-75 CNS and in the test on PC-3 prostate was over 100 µM each time. Further, the TGI in the test on MOLT-4 leukemia, in the test with KM12 colon, in the test on UACC-257 melanoma and in the test with HCT-116 colon was over 100 µM throughout.

Consider `Cc1cc(Cl)ccc1Nc1nc(C(F)(F)F)ccc1C(=O)N/N=C/c1ccc(F)cc1`, for which the GI50 is 710 nM with SF-295 CNS; 2360 nM with NCI-H226 lung; 2270 nM in the test with NCI/ADR-RES ovarian; 1820 nM with CAKI-1 renal; 1550 nM in the test on SNB-75 CNS; 1850 nM with PC-3 prostate. For the same molecule, the GI50 in the test with MOLT-4 leukemia is 1600 nM; in the test with KM12 colon, 1990 nM; in the test on UACC-257 melanoma it was 1.33 µM; with HCT-116 colon, 1400 nM. The TGI in the test with SF-295 CNS was found to be 3.63 µM; in the test on NCI-H226 lung, 7.63 µM; in the test with NCI/ADR-RES ovarian, 19.2 µM; with CAKI-1 renal it was 6.55 µM; in the test with SNB-75 CNS, 9.45 µM; in the test with PC-3 prostate, 8.64 µM. In addition, the TGI is 4.98 µM in the test with MOLT-4 leukemia, 5.33 µM in the test on KM12 colon, 3.67 µM in the test with UACC-257 melanoma and 11.1 µM in the test on HCT-116 colon.

As to `N=c1c2c(=O)n3c(nc2nc2sc4ccc(Cl)cc4n12)-c1ccccc1Sc1ccccc1-3`, the GI50 was 1410 nM with SF-295 CNS; 2920 nM in the test on NCI-H226 lung; 2050 nM with NCI/ADR-RES ovarian; 2360 nM with CAKI-1 renal; 2450 nM in the test with SNB-75 CNS; 2600 nM in the test with PC-3 prostate. Moreover, the GI50 was 1770 nM with MOLT-4 leukemia, 2900 nM in the test with KM12 colon, 3.14 µM with UACC-257 melanoma and 2340 nM in the test on HCT-116 colon. Besides, the TGI in the test with SF-295 CNS was 5.79 µM; in the test on NCI-H226 lung it was 21.5 µM; in the test with NCI/ADR-RES ovarian, 7.5 µM; in the test on CAKI-1 renal it was 12.9 µM; with SNB-75 CNS, 9.66 µM; in the test on PC-3 prostate it was over 100 µM. Moreover, the TGI is 9.64 µM in the test on MOLT-4 leukemia, 12.4 µM in the test with KM12 colon, 9.39 µM in the test with UACC-257 melanoma and 10.3 µM in the test on HCT-116 colon.

For `COc1ccc(-c2oncc2-c2cc(OC)c3c(c2)OCO3)cc1`, the GI50 with SF-295 CNS is 2130 nM; in the test with NCI-H226 lung, 9530 nM; in the test on NCI/ADR-RES ovarian it was 1630 nM; in the test on CAKI-1 renal, 2160 nM; with SNB-75 CNS it was 1430 nM; in the test with PC-3 prostate, 2990 nM. Moreover, the GI50 in the test on MOLT-4 leukemia was 3900 nM; in the test on KM12 colon it was 2660 nM; in the test on UACC-257 melanoma it was over 20 µM; in the test with HCT-116 colon, 3280 nM. Also, the TGI in the test with SF-295 CNS is 10.3 µM; in the test on NCI-H226 lung it was over 93.8 µM; in the test on NCI/ADR-RES ovarian, 24.4 µM; with CAKI-1 renal, 31.2 µM; in the test with SNB-75 CNS, 5.12 µM; in the test with PC-3 prostate, over 66.1 µM. The TGI in the test with MOLT-4 leukemia is over 92.6 µM; in the test on KM12 colon, over 82.2 µM; with UACC-257 melanoma, over 100 µM; with HCT-116 colon it was over 58.3 µM.

Take `CCOCC[P+](c1ccccc1)(c1ccccc1)c1ccccc1`: the GI50 in the test with SF-295 CNS is 20400 nM; with NCI-H226 lung it was 17800 nM; in the test on NCI/ADR-RES ovarian, over 100000 nM; with CAKI-1 renal, 44100 nM; with SNB-75 CNS, 10800 nM; with PC-3 prostate it was 10800 nM. For the same molecule, the GI50 in the test on MOLT-4 leukemia is 31400 nM; in the test with KM12 colon it was 11200 nM; in the test with UACC-257 melanoma it was 6.86 µM; with HCT-116 colon, 14700 nM. For the same molecule, the TGI is 78.6 µM in the test with SF-295 CNS; over 100 µM in the test with NCI-H226 lung; over 100 µM in the test on NCI/ADR-RES ovarian; over 100 µM in the test with CAKI-1 renal; 53.4 µM with SNB-75 CNS; 72.9 µM with PC-3 prostate. Further, the TGI with MOLT-4 leukemia was over 100 µM; in the test with KM12 colon it was over 100 µM; in the test on UACC-257 melanoma, 49.6 µM; in the test with HCT-116 colon it was over 100 µM.

Take `CNC(=S)N/N=C(/C)CCC/C(C)=N/NC(=S)NC`: the TGI with SF-295 CNS, in the test with NCI-H226 lung, with NCI/ADR-RES ovarian, with CAKI-1 renal, in the test with SNB-75 CNS and with PC-3 prostate was over 100 µM in each case. In addition, the TGI in the test with MOLT-4 leukemia was 0.303 µM; in the test with KM12 colon, over 100 µM; with UACC-257 melanoma, over 100 µM; in the test on HCT-116 colon, over 100 µM.

Turning to `O=C1/C(=c2\c3ccccc3n3c(=O)c4ccccc4nc23)Nc2ccccc21`, the TGI was over 100 µM in the test on SF-295 CNS; over 100 µM with NCI-H226 lung; over 100 µM with NCI/ADR-RES ovarian; over 100 µM with CAKI-1 renal; over 76.1 µM in the test with SNB-75 CNS; over 100 µM with PC-3 prostate. Moreover, the TGI is over 31.6 µM with MOLT-4 leukemia, over 100 µM with KM12 colon, over 100 µM in the test on UACC-257 melanoma and over 100 µM in the test with HCT-116 colon.

Consider `CC(=O)O[C@@H]1CC(=O)O[C@@H]2C[C@@H](CC/C(Cl)=C/C/C=C\1C)O[C@@H]2CO`, for which the TGI in the test on SF-295 CNS, with NCI-H226 lung, with NCI/ADR-RES ovarian, in the test on CAKI-1 renal, in the test on SNB-75 CNS and in the test on PC-3 prostate was over 25 µM in each case. The TGI with MOLT-4 leukemia is over 25 µM; in the test with KM12 colon it was over 6.4 µM; in the test with UACC-257 melanoma, over 25 µM; in the test on HCT-116 colon, over 25 µM. Also, the GI50 in the test on NCI-H226 lung, in the test with NCI/ADR-RES ovarian, with CAKI-1 renal, in the test on SNB-75 CNS, with PC-3 prostate and with MOLT-4 leukemia was over 25000 nM in each case. Moreover, the values for the GI50 in the test with UACC-257 melanoma and with HCT-116 colon were over 25 µM and over 25000 nM, respectively.

As for `COc1cc([C@@H]2c3cc4c(cc3[C@H](O)[C@H]3COC(=O)[C@@H]23)OCO4)cc(OC)c1OC`, the GI50 in the test with SF-295 CNS was 285 nM and 104 nM; in the test on NCI-H226 lung, 754 nM and 602 nM; with NCI/ADR-RES ovarian, 884 nM and 194 nM; in the test with CAKI-1 renal, 448 nM and 258 nM; in the test with SNB-75 CNS, 256 nM and 45.5 nM; in the test on PC-3 prostate, 362 nM and 510 nM. Moreover, the GI50 with MOLT-4 leukemia was 587 nM and 845 nM; in the test on KM12 colon, 343 nM and 158 nM; in the test with UACC-257 melanoma, over 100 µM; in the test with HCT-116 colon it was 406 nM and 185 nM. Further, the TGI is 1.61 µM with SF-295 CNS; over 100 µM in the test with NCI-H226 lung; over 10 µM in the test with NCI/ADR-RES ovarian; over 35.8 µM in the test on CAKI-1 renal; over 100 µM in the test with SNB-75 CNS; over 100 µM in the test on PC-3 prostate. For the same molecule, the TGI in the test with MOLT-4 leukemia is over 100 µM; with KM12 colon it was > 8.5 µM and 0.967 µM; with UACC-257 melanoma, over 100 µM; with HCT-116 colon, over 10 µM.

For the origin of these results see PubChem BioAssay (NCI).
